Results as given in patent US8088749B2, “Compositions and methods for treating cancer” (The Regents of the University of Michigan, priority 2007, dated 2012).
“Also recorded” adds a separate entry of the source.

Legend:
[1] = tested on: ATDC; assay: Western blot analysis of ATDC after miRNA mimic transfection, L3.6PL cells; type: cell-based, human; conditions: 36 h after transfection with miRNA mimics
Procedure: (§1) FIGS. 31A and B are L3.6PL cells, and FIGS. 31 C and D are BXPC3 cells. The lanes in these figures is as follows: 1(a). Lipofectamine2000 only; 2(b). Control miRNA; 3. miR-299-5p; 4. miR-185; 5. miR-522; 6. miR-506; 7. miR-765; 8. miR-362; 9. miR-515-5p; 10. miR-661; 11. miR-525; c. miR-34a; d. miR-34b; e. miR-34c; f. miR-150; g. miR-296; h. miR-500; and i. miR-650.
(§2) For testing the miRNAs for ATDC, Western blot analysis of pancreatic cancer cells transfected was carried out with the miRNAs by Lipofactamine2000. […] They are miR-34a, miR-34c, miR-296, miR-650, miR-299-5p, miR-185, miR-765, miR-522, and miR-362.

[2] = tested on: ATDC; assay: Western blot analysis of ATDC after miRNA mimic transfection, BXPC-3 cells; type: cell-based, human; conditions: 36 h after transfection with miRNA mimics
Procedure: as §1, §2

[3] = tested on: ATDC; assay: ATDC localization after nuclear export inhibition, Panc-1 cells; type: cell-based, human; conditions: 1 ng/ml, 6 hours
Procedure: In previous reports, ATDC was described as being predominately cytoplasmic in several cell types (see, e.g., Reymond A, et al., Embo J 2001; 20, 2140-2151; Brzoska P M, et al., Proc. Natl. Acad. Sci. USA 1995; 92, 7824-7828), conflicting with its potential role in the DNA damage response/DNA repair. In localization studies, it was determined that both endogenous ATDC and GFP-tagged ATDC had predominantly cytoplasmic localization, with some staining in the nucleus. To better understand how a protein with predominately cytoplasmic localization might be involved in the DNA response, wild type Panc-1 cells was treated with the nuclear export inhibitor leptomycin B (1 ng/ml) for 6 hours.

[4] = tested on: ATDC; assay: ATDC gene expression in gastric cancer KATO III cells; type: cell-based; conditions: human gastric cancer KATO III cells
Procedure: Next, the miRNAs regulation of ATDC by qRT-PCR was examined. 24 hours after miRNA mimic transfection of the cancer cells (100 pmol per well in 6-well plates), ATDC mRNA levels were measured by qRT-PCR with TaqMan SYBR Green PCR System (Applied Biosystems). Briefly, total RNA was extracted from the transfected cells using TRIZOL (Invitrogen) according to the manufacturer's instructions. Reverse transcription was performed using a TaqMan Reverse Transcription Kit (Applied Biosystems). For qRT-PCR, 1 μl of gene primers with SYBR Green (Applied Biosystems) in 20 μl of reaction volume was applied. Primers for ATDC: Forward: 5′-[…]-3′ (SEQ ID NO:45), Reverse: 5′-[…]-3′ (SEQ ID NO:46).

[5] = tested on: Dvl-2; assay: Western blot after Dvl-2 shRNA transfection, HEK 293 cells; type: cell-based, human; conditions: transient transfection
Procedure: (§3) FIG. 26. The oncogenic effects of ATDC are mediated by Dvl-2. (A. B) The effects of Dvl-2 shRNA 1 or 2 on b-catenin expression is shown in representative Western blots of HEK 293 (A) and MiaPaCa2 cells […] with or without ATDC overexpression. (C, D) TCF reporter activity was assessed in Dvl-2 shRNA 1 or 2-transfected HEK 293 (C) or Mia PaCa2 cells (D) with (+) or without (−) ATDC overexpression. The results from 3 separate experiments, performed in triplicate (*p<0.05 vs empty vector-transfected cells). (E. F) MTS proliferation assays in Dvl-2 shRNA1 or 2-transfected HEK 293 (E) and MiaPaCa2 (F) cells with (+) or without (−) ATDC overexpression (n=3, *p<0.05 vs wild type cells). (G) TCF reporter activity was measured in HEK 293, SW480, DLD-1 and HCT-116 cells with vector (white bars) or ATDC (black bars) transfection using the β-catenin responsive TOPFLASH reporter and the mutant control FOPFLASH reporter. The mean of the TOP/FOP ratio, as compared with the activity, for three independent experiments, performed in triplicate. […] The experiments were repeated three times and the data is expressed as the mean±SE. […] 48 hours after transfection, cell growth rates were assessed. […]

[6] = tested on: Dvl-2; assay: Western blot after Dvl-2 shRNA transfection, MiaPaCa2 cells; type: cell-based, human; conditions: transient transfection
Procedure: as §3

miR-299-5p: miRNA mimic (UACAUACACCCUGCCAUUUGGU; listed as RNA, chemistry not given here; listed as Homo sapiens)
ATDC protein levels [1]: potently reduced | ATDC protein levels [2]: potently reduced

miR-185: miRNA mimic (CUUGACGGAAAGAGAGGU; listed as RNA, chemistry not given here; listed as Homo sapiens)
ATDC protein levels [1]: potently reduced | ATDC protein levels [2]: potently reduced

miR-522: miRNA mimic (UUGUGAGAUUUCCCUUGGUAAAA; listed as RNA, chemistry not given here; listed as Homo sapiens)
ATDC protein levels [1]: potently reduced | ATDC protein levels [2]: potently reduced

miR-34c: miRNA mimic (CGUUAGUCGAUUGAUGUGACGGA; listed as RNA, chemistry not given here; listed as Homo sapiens)
ATDC protein levels [1]: potently reduced | ATDC protein levels [2]: potently reduced

CCC(=C/[C@H](C)C/C=C/C(C)=C/[C@@H](C)C(=O)[C@@H](C)[C@H](O)[C@@H](C)C/C(C)=C/C(=O)O)/C=C/[C@@H]1OC(=O)C=C[C@@H]1C [leptomycin B]
ATDC localization [3]: ATDC accumulation in the nucleus | ATDC localization ([3]; listed as leptomycin): nuclear retention of ATDC

miR-650: miRNA mimic (CAGGACUCUCGCGACGGAGGA; listed as RNA, chemistry not given here; listed as Homo sapiens)
ATDC protein levels [1]: potently reduced; also recorded: less potent | ATDC protein levels [2]: potently reduced

miR-34a: miRNA mimic (UUGUUGGUCGAUUCUGUGACGGU; listed as RNA, chemistry not given here; listed as Homo sapiens)
ATDC protein levels [1]: potently reduced | ATDC protein levels [2]: potently reduced | ATDC gene expression [4]: potently down-regulated; also recorded: significantly inhibited

miR-362: miRNA mimic (UGAGUGUGGAUCCAAGGUUCCUAA; listed as RNA, chemistry not given here; listed as Homo sapiens)
ATDC protein levels [1]: potently reduced | ATDC protein levels [2]: potently reduced

miR-765: miRNA mimic (GUAGUGGAAGGAAGAGGAGGU; listed as RNA, chemistry not given here; listed as Homo sapiens)
ATDC protein levels [1]: potently reduced; also recorded: less potent | ATDC protein levels [2]: potently reduced

B1: Dvl-2 shRNA 1: shRNA to Dvl-2, sense and anti-sense SEQ ID NOs: 7 and 8 (OriGene) (nucleic acid, listed as Homo sapiens)
sense: CACCTGTAGCTGCCTTTGTTACTCTATTTATTTCGAAAAATAAATAGAGTAACAAAGGCAGCTACA
antisense: AAAATGTAGCTGCCTTTGTTACTCTATTTATTTATTCGAAATAAATAGAGTAACAAAGGCAGCTACA
modifications: the letters are possibly those of the target site
levels of Dvl-2 [5]: effective | levels of Dvl-2 [6]: effective

B2: Dvl-2 shRNA 2: shRNA to Dvl-2, sense and anti-sense SEQ ID NOs: 9 and 10 (OriGene) (nucleic acid, listed as Homo sapiens)
sense: CACCGGACCGCATGTGGCTCAAGATCACCATCCCGAAGGATGGTGATCTTGAGCCACATGCGGTCC
antisense: AAAAGGACCGCAGTGGCTCAAGATCACCATCCTTCGGGATGGTGATCTTGAGCCACATGCGGTCC
modifications: the letters are possibly those of the target site
levels of Dvl-2 [5]: effective | levels of Dvl-2 [6]: effective
